Where “and” joins values, the source holds several entries; their conditions need not be identical. Identical values can stand only once. Inconclusive results and toxic doses are left out. How the source made its calls: active means survival T/C of 150% or more; inactive means T/C below 125% in these data. Peptide text beside a SMILES is read from it.
System: P388 leukemia ip, CD2F1 mice, survival T/C
Assay: NCI In Vivo Anticancer Drug Screen. Data for tumor model P388 Leukemia (intraperitoneal) in CD2F1 (CDF1) mice
Details: endpoint: median survival time, higher = longer survival
In short: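 Mice carrying the transplanted tumor received test compound or vehicle. Survival was recorded in each group, and the value is the treated-group measurement divided by that of the vehicle-treated control group.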

[1] = dose: 50.0 mg/kg/injection, schedule: Q01DX001 (ip), vehicle: Klucel (hydroxypropylcellulose) (HPC)
[2] = dose: 100.0 mg/kg/injection, schedule: Q01DX001 (ip), vehicle: Klucel (hydroxypropylcellulose) (HPC)
[3] = dose: 200.0 mg/kg/injection, schedule: Q01DX001 (ip), vehicle: Klucel (hydroxypropylcellulose) (HPC)
[4] = dose: 50.0 mg/kg/injection, schedule: Q01DX009 (ip), vehicle: saline with Tween-80
[5] = dose: 100.0 mg/kg/injection, schedule: Q01DX009 (ip), vehicle: saline with Tween-80
[6] = dose: 200.0 mg/kg/injection, schedule: Q01DX009 (ip), vehicle: saline with Tween-80
[7] = dose: 100.0 mg/kg/injection, schedule: Q01DX001 (ip), vehicle: saline with Tween-80
[8] = dose: 200.0 mg/kg/injection, schedule: Q01DX001 (ip), vehicle: saline with Tween-80
[9] = dose: 25.0 mg/kg/injection, schedule: Q01DX009 (ip), vehicle: saline
[10] = dose: 50.0 mg/kg/injection, schedule: Q01DX009 (ip), vehicle: saline
[11] = dose: 100.0 mg/kg/injection, schedule: Q01DX009 (ip), vehicle: saline
[12] = dose: 200.0 mg/kg/injection, schedule: Q01DX009 (ip), vehicle: saline
[13] = dose: 60.0 mg/kg/injection, schedule: Q01DX005 (ip), vehicle: saline with Tween-80
[14] = dose: 120.0 mg/kg/injection, schedule: Q01DX005 (ip), vehicle: saline with Tween-80
[15] = dose: 240.0 mg/kg/injection, schedule: Q01DX005 (ip), vehicle: saline with Tween-80
[16] = dose: 25.0 mg/kg/injection, schedule: Q04DX003 (ip), vehicle: saline
[17] = dose: 50.0 mg/kg/injection, schedule: Q04DX003 (ip), vehicle: saline
[18] = dose: 12.5 mg/kg/injection, schedule: Q01DX009 (ip), vehicle: saline with Tween-80
[19] = dose: 60.0 mg/kg/injection, schedule: Q01DX005 (ip), vehicle: saline
[20] = dose: 120.0 mg/kg/injection, schedule: Q01DX005 (ip), vehicle: saline
[21] = dose: 240.0 mg/kg/injection, schedule: Q01DX005 (ip), vehicle: saline
[22] = dose: 7.5 mg/kg/injection, schedule: Q01DX005 (ip), vehicle: saline with Tween-80
[23] = dose: 15.0 mg/kg/injection, schedule: Q01DX005 (ip), vehicle: saline with Tween-80
[24] = dose: 30.0 mg/kg/injection, schedule: Q01DX005 (ip), vehicle: saline with Tween-80

Measured: T/C

CC(C)(C)C#CP(=O)(C#CC(C)(C)C)C#CC(C)(C)C
inactive: [1] 97 % of control | [2] 99 % of control | [3] 95 % of control

CCOC(=O)CCC1CCCCC1=O (stereo unspecified)
inactive: [4] 103 % of control | [5] 93 % of control | [6] 103 % of control

CN(C)CCC=C1c2ccccc2C=Cc2ccccc21
inactive: dose: 12.5 mg/kg/injection, schedule: Q01DX005 (ip), vehicle: saline 103 % of control | dose: 25.0 mg/kg/injection, schedule: Q01DX005 (ip), vehicle: saline 95 % of control | dose: 50.0 mg/kg/injection, schedule: Q01DX005 (ip), vehicle: saline 112 % of control

NC(=O)N/N=C1\CCC2CCCCC2C1 (stereo unspecified)
inactive: dose: 25.0 mg/kg/injection, schedule: Q01DX001 (ip), vehicle: Klucel (hydroxypropylcellulose) (HPC) 107 % of control | [1] 101 % of control | [2] 100 % of control

CCCCCCCCOC(=O)COc1ccc(Cl)cc1Cl
inactive: [1] 113 % of control | dose: 50.0 mg/kg/injection, schedule: Q01DX001 (ip), vehicle: saline with Tween-80 98 % of control | [2] 109 % of control | [7] 100 % of control | [3] 122 % of control | [8] 105 % of control

O=C1CCc2cc(O)ccc21
inactive: [9] 108 % of control | [10] 94 % of control | [11] 98 % of control | [12] 100 % of control

O=C(NCCCl)Nc1ccccc1C(=O)O
inactive: [4] 90 % of control | [5] 95 % of control | [6] 99 % of control

Cc1ncc(CO)c(CO)c1OCC(O)CN1CCN(c2ccc(F)cc2)CC1 (stereo unspecified)
inactive: [13] 99 % of control | [14] 98 % of control | [15] 104 % of control

CNC(=O)Nc1ccnc2ccc3c(ncn3C(=O)NC)c12
inactive: [7] 104 % of control | [8] 98 % of control

COc1cc(O)c(O)cc1C(C)(C)C
inactive: dose: 22.5 mg/kg/injection, schedule: Q01DX005 (ip), vehicle: saline with Tween-80 106 % of control | dose: 45.0 mg/kg/injection, schedule: Q01DX005 (ip), vehicle: saline with Tween-80 110 % of control | dose: 90.0 mg/kg/injection, schedule: Q01DX005 (ip), vehicle: saline with Tween-80 97 % of control

c1cc(-c2cc3ccc(C4=NCCN4)cc3s2)ccc1C1=NCCN1
inactive: [16] 115 % of control | [17] 115 % of control

O=[N+]([O-])c1ccc(C=C2C(Cl)=C(Cl)C(Cl)=C2Cl)cc1
inactive: dose: 6.25 mg/kg/injection, schedule: Q01DX009 (ip), vehicle: saline with Tween-80 91 % of control | [18] 100 % of control

CC1=CC(=O)[C@@H](O)[C@@]2(C)C1C[C@H]1OC(=O)[C@H](C/C=C(/C)C(C)C)[C@H]3C(C)C(O)C4(O)OC[C@@]31C42 (stereo partly specified)
inactive: dose: 1.0 mg/kg/injection, schedule: Q01DX005 (ip), vehicle: saline with Tween-80 100 % of control | dose: 2.0 mg/kg/injection, schedule: Q01DX005 (ip), vehicle: saline with Tween-80 96 % of control | dose: 4.0 mg/kg/injection, schedule: Q01DX005 (ip), vehicle: saline with Tween-80 95 % of control | dose: 8.0 mg/kg/injection, schedule: Q01DX005 (ip), vehicle: saline with Tween-80 101 % of control

CSCCC(N)C(=O)NCCS(=O)(=O)O (stereo unspecified)
inactive: [19] 105 % of control | [20] 109 % of control | [21] 102 % of control

Cc1cc2nc(CC(=O)c3cccnc3)c(=O)[nH]c2cc1C
inactive: [22] 100 % of control | [23] 94 % of control | [24] 92 % of control | [15] 88 % of control

CCCC1C=C(c2ccccc2)N=C(c2ccccc2)S1 (stereo unspecified)
inactive: [4] 98 % of control | [5] 101 % of control | [6] 90 % of control

CCC(C)C(NC(=O)C(N)CC(C)C)C(=O)O (stereo not drawn) (H-Leu-Ile-OH; configuration not given here)
inactive: [19] 108 % of control | [20] 108 % of control | [21] 104 % of control

CC(C)(C)c1ccc(C(=O)O)c(O)c1.CC(C)(C)c1ccc(C(=O)O)c(O)c1.[Cu]
inactive: dose: 12.5 mg/kg/injection, schedule: Q04DX003 (ip), vehicle: saline 102 % of control | [16] 94 % of control | [17] 103 % of control

CN(CCOC(N)=O)CCOC(N)=O
inactive: [13] 92 % of control | [14] 97 % of control | [15] 95 % of control

CCCCCCC(=O)/C=C/c1ccc(OCc2ccccc2)c(OCc2ccccc2)c1
inactive: dose: 6.25 mg/kg/injection, schedule: Q01DX005 (ip), vehicle: saline with Tween-80 92 % of control | dose: 12.5 mg/kg/injection, schedule: Q01DX005 (ip), vehicle: saline with Tween-80 92 % of control

C=C1C(=O)OCC1(C(=O)OCC)C(=O)OCC
inactive: dose: 4.0 mg/kg/injection, schedule: Q01DX009 (ip), vehicle: saline with Tween-80 117 % of control | dose: 8.0 mg/kg/injection, schedule: Q01DX009 (ip), vehicle: saline with Tween-80 117 % of control and 124 % of control | dose: 16.0 mg/kg/injection, schedule: Q01DX009 (ip), vehicle: saline with Tween-80 115 % of control | dose: 32.0 mg/kg/injection, schedule: Q01DX009 (ip), vehicle: saline with Tween-80 115 % of control

CCOC(=O)CC(CS(=O)CP(=O)(OCC)OCC)C(=O)OCC (stereo unspecified)
inactive: [22] 91 % of control | [23] 92 % of control | [24] 102 % of control | [13] 102 % of control and 110 % of control

Cc1ccc(Nc2nnc(-c3ccc4c(c3)OCO4)o2)c(C)c1
inactive: dose: 50.0 mg/kg/injection, schedule: Q01DX005 (ip), vehicle: Klucel (hydroxypropylcellulose) (HPC) 97 % of control | dose: 100.0 mg/kg/injection, schedule: Q01DX005 (ip), vehicle: Klucel (hydroxypropylcellulose) (HPC) 97 % of control | dose: 200.0 mg/kg/injection, schedule: Q01DX005 (ip), vehicle: Klucel (hydroxypropylcellulose) (HPC) 100 % of control

CCOC1OCCCC1(C)C (stereo unspecified)
inactive: [13] 100 % of control | [14] 105 % of control | [15] 112 % of control

CC1OC(OC2C(Oc3ccc4c(=O)c(-c5ccc(O)c(O)c5O)coc4c3)OC(CO)C(O)C2O)C(O)C(O)C1O (stereo unspecified)
inactive: [13] 103 % of control | [14] 101 % of control | [15] 103 % of control

CCOC(=O)c1cnn(-c2ccccc2)c1N
inactive: [18] 99 % of control | dose: 12.5 mg/kg/injection, schedule: Q01DX009 (ip), vehicle: saline 99 % of control | dose: 25.0 mg/kg/injection, schedule: Q01DX009 (ip), vehicle: saline with Tween-80 109 % of control | [9] 102 % of control | [4] 101 % of control | [10] 99 % of control | [5] 96 % of control | [11] 103 % of control | [6] 96 % of control | [12] 94 % of control | dose: 400.0 mg/kg/injection, schedule: Q01DX009 (ip), vehicle: saline with Tween-80 99 % of control | dose: 400.0 mg/kg/injection, schedule: Q01DX009 (ip), vehicle: saline 105 % of control

— PubChem BioAssay AID330 (DTP/NCI, 2004)
